Test results as given in patent US20230391828A1, “REGULATORS OF CELL DIVISION” (TECHNISCHE UNIVERSITÄT DRESDEN, priority 2020, published 2023).
Bridge positions count the residues as written; N and C are the ends. Square brackets hold non-standard residues; d marks the D form. Peptide text beside a SMILES is read from it. R8 = C=CCCCCCC[C@@](C)(N)C(=O)O; S5 = C=CCCC[C@](C)(N)C(=O)O

Tests used:
APC/C (APC11) = molecular target: T1, APC/C (APC11) (Homo sapiens, UniProt Q9NYG5); experiment: Pull-down binding assay in HeLa K cell extract, APC/C; settings: Pra peptide clicked to azide agarose or magnetic beads, Western blot
T1 construct: endogenous in cells; host or cells: HeLa K cell extract
Protocol: For the protein transfer, the 0.45 μm Immobilon-FL PVDF membrane (Merck Millipore) was used. The membrane was activated in ethanol and then transferred to the Blotting buffer (50 mM SDS-MOPS, 50 mM Tris base, 0.1% SDS, 1 mM EDTA, 20% EtOH). The proteins were transferred using a wet transfer for 1.5 h at 400 mA. Subsequently, the membrane was incubated with the blocking solution, 10% milk in PBS-T (0.02% Tween-20 in PBS), for 1 h at room temperature. To detect proteins of the interest, the membrane was incubated with primary antibodies overnight at 4° C. Followed by washing the membrane 3 times 10 min with PBS-T and incubation with IRDye fluorescently labelled secondary antibodies for 1 h. Prior detection, the membrane was twice washed with PBS-T for 10 min and once with PBS for 10 min. The detection was done using the quantitative near-infrared scanning system Odyssey (LI-COR Biosciences).
HeLa K cell pellet was re-suspended in the extraction buffer (30 mM HEPES pH 7.5, 175 mM NaCl, 2.5 mM MgCl2, 0.25% NP40, 10% glycerol, 1 mM DTT) supplemented with 10 μM MG132 (VWR), 1 mM PMSF (Sigma-Aldrich), complete protease inhibitor cocktail (Roche) and PhosSTOP phosphatase inhibitors (Roche) and incubated for 20 min on ice, followed by centrifugation of cell debris for 15 min at 4° C. 16 100 g. In mean time, inhibitor molecules containing Propargyl (Pra) chemical group were covalently attached to the azide agarose or azide magnetic resin (Jena Bioscience) by Cu(I)-catalysed azide-alkyne cycloaddition reaction. Specifically, the inhibitor molecules were mixed with azide agarose resin in ratio 0.125 μmol inhibitor/25 μl agarose resin and azide magnetic resin in ratio 0.018 μmol inhibitor/20 μl magnetic resin. The reaction was catalysed by 1 mM CuSO4, 0.1 mM TBTA (Sigma-Aldrich) and 1 mM Sodium ascorbate and was performed on the rotating wheel for 30 min at room temperature in the volume of 1 ml. Subsequently, the resin was washed 5 times with the extraction buffer. The inhibitor-agarose resin was added to 1 mg of HeLa K cell extract and the inhibitor-magnetic resin was added to 0.5 mg of HeLa K cell extract followed by incubation at 4° C. for 2 h. Followed by washing the resin 5 times with the extraction buffer. Pull-down proteins were eluted by boiling for 15 min with 1×LDS sample buffer supplemented with 100 mM DTT (agarose resin) or by incubation with 1×LDS sample buffer for 10 min at room temperature followed by taking supernatant that was supplemented with 100 mM DTT and boiling it for 10 min. Samples were subjected to SDS PAGE and Western blot analysis.
HeLa K cell pellet was re-suspended in the extraction buffer (30 mM HEPES pH 7.5, 175 mM NaCl, 2.5 mM MgCl2, 0.25% NP40, 10% glycerol, 1 mM DTT supplied with complete protease inhibitor cocktail (Roche), PhosSTOP phosphatase inhibitors (Roche), 1 mM PMSF, 10 μM MG132) and incubated for 20 min on ice, followed by centrifugation to clear the lysate for 15 min at 4° C. 16,100 g. In the meantime, inhibitor molecules containing the propargyl-Gly-OH (Pra) chemical group were covalently attached to the azide agarose resin (Jena Bioscience) by Cu(I)-catalysed azide-alkyne cycloaddition reaction. Specifically, the inhibitor molecules were mixed with azide agarose resin in ratio 0.125 μmol inhibitor/20 μl agarose resin. The reaction was catalysed by 0.1 mM CuSO4, 0.5 mM THPTA (Sigma-Aldrich) and 5 mM Sodium ascorbate and was performed on the rotating wheel for 30 min at room temperature in the volume of 1 ml. […]

APC/C [1] = molecular target: T2, APC/C (Homo sapiens, UniProt Q9NYG5); experiment: In vitro APC/C ubiquitination assay driven by the E2 enzyme UBE2C, fluorophore-labelled securin substrate; format: biochemical
T2 construct: made in house; host or cells: SF9 insect cells (baculovirus)

APC/C [2] = molecular target: T2, APC/C; experiment: In vitro APC/C ubiquitination assay with different E2 enzymes (UBE2C, UBE2D, UBE2S), Ub-cyclin B1 substrate; format: biochemical; settings: 100 μM, reaction time 40 min
Protocol: Proteins were separated by SDS-PAGE electrophoresis using precast Bolt 4-12% Bis-Tris Plus protein gels (Thermo Fisher Scientific) and Criterion XT Bis-Tris Midi Protein Gels (Bio-Rad). In different experiments, various conditions were used: in vitro APC/C ubiquitination assays—165 V, 40 min, SDS-MES running buffer (50 mM MES, 50 mM Tris base, 0.1% SDS, 1 mM EDTA, pH 7.3; Thermo Fisher Scientific); in vitro APC/C ubiquitination assays determining KM—165V, 1 h, SDS-MOPS running buffer (50 mM MOPS, 50 mM Tris base, 0.1% SDS, 1 mM EDTA, pH 7.7; Thermo Fisher Scientific); pull-down binding assay—165 V, 35 min, SDS-MES running buffer.
APC/C-dependent ubiquitination reactions were performed at 30° C. in 30 mM HEPES pH 7.4, 175 mM NaCl, 8 mM MgCl2, 0.05% Tween-20, 1 mM DTT and 5% glycerol and contained 20 nM recombinant APC/C (note, for testing the first generation of inhibitors, APC/C and Cdc20 immunoprecipitated from mitotic HeLa K cells was used), 340 nM Cdc20, 46 nM GST-UBA1, 340 nM UBE2C (alternatively 400 nM UBE2D1, 280 nM UBE2S), 21 μM His6-ubiquitin or if it is indicated 21 μM methylated-ubiquitin (BostonBiochem), 2.6 mM ATP, 10 mM phosphocreatine and 11 μM creatine kinase. […] Detection of fluorescently labelled substrates was done by quantitative near-infrared scanning system Odyssey.

APC/C [3] = experiment: Ubiquitinated securin (Mean ± SD); settings: 100 µM
Description: Table printed on a drawing sheet, Figure 6
Head of the field: Ubiquitinated securin (Mean ± SD)

binding to the APC/C (pull-down) (APC/C (APC11)): binds specifically to the APC/C | difference between KM without and with inhibitor (APC/C [1]; 3 μM G3-6, securin titration, unpaired t test p=0.0886): not significant | IC50 (APC/C [1]; UBE2C, 0.01-100 μM, reaction time 10 min, methylated ubiquitin, ubiquitinated securin, 4 independent experiments): 1.96 µM | Ki (APC/C [1]; model for non-competitive inhibition in Prism 6.0, 3 μM inhibitor, securin 50-5000 nM, reaction time 2 min, read-out: inhibitory constant (Ki)): 5 µM | mechanism of action (type of the inhibition) (APC/C [1]; titration of substrate (securin)): non-competitive inhibitor | IC50 (in words) (APC/C [1]; titration of the G3-6 molecule): low micromolar range
SMILES: CC[C@H](C)[C@@H]1NC(=O)[C@H](CCC(=O)O)NC(=O)[C@H](CCCCN)NC(=O)[C@H]([C@@H](C)CC)NC(=O)[C@](C)(NC(=O)[C@H](Cc2c[nH]c3ccccc23)NC(=O)[C@H](Cc2c[nH]c3ccccc23)NC(=O)[C@H](CCC(=O)O)NC(C)=O)CCCCCCC=CCCC[C@@](C)(C(=O)N[C@@H](CCCNC(=N)N)C(=O)N[C@@H](CCCNC(=N)N)C(=O)N[C@@H](C)C(N)=O)NC(=O)[C@H](CCCNC(=N)N)NC(=O)[C@H](CCC(N)=O)NC1=O [G3-6, Ac-cyclo(4,11)-EWWZIKEIQRXRRA-NH2] (Ac-EWW[R8]IKEIQR[S5]RRA-NH2; staple 4-11)
inhibition of APC/C activity in vitro compared with TAME (APC/C [1]; 100 μM, UBE2C, reaction time 45 min, 3 independent assays): inhibit APC/C in vitro more efficiently than TAME | inhibition of APC/C activity in vitro, titration (APC/C [1]; 25, 50, 75 and 100 μM, UBE2C, reaction time 45 min): inhibits APC/C in vitro the most potently | inhibition of APC/C activity driven by different E2 enzymes (APC/C [2]): inhibits APC/C in vitro independently on employed E2 enzymes | Ubiquitinated securin (Mean ± SD) (APC/C [3]): 3.6 ± 5%
